Assay results as given in patent US8247420B2, “Compositions, synthesis, and methods of using quinolinone based atypical antipsychotic agents” (Reviva Pharmaceuticals, Inc., priority 2007, dated 2012).
Where a name gives a salt, the structure may show the parent alone.

How the values were obtained:
Serotonin, 5HT2A (human) = Serotonin, 5HT2A (human) (Homo sapiens, UniProt P28223); assay: Serotonin, 5HT2A (human) radioligand binding assay ([3H]-Ketanserin); conditions: human cortex
Protocol: The reactions were carried out in 50 mM TRIS-HCl (pH 7.6) at room temperature for 90 minutes. The reaction was terminated by rapid vacuum filtration onto glass fiber filters. Radioactivity trapped onto the filters was determined and compared to control values in order to ascertain any interactions of test compounds with the serotonin-5HT2A binding site (Literature Reference: Leysen, J. E. et al. Mol. Pharmacol. 1982, 21, 301-314; Martin, G. R. and Humphrey, P. P. A. Neuropharmacol. 1994, 33(3/4), 261-273.)
(§1) The radioligand binding assays for dopamine-D2S and serotonin-5HT1A were carried out at six different concentrations and the test concentrations were 1 nM, 5 nM, 10 nm 50 nM, 100 nM and 500 nM. The radioligand binding assays for serotonin-5HT2A were carried out at seven different concentrations and the test concentrations were 5 nM, 10 nM, 50 nM, 100 nM, 500 nM, 1 uM, and 300 uM.

[1] = molecular target: T1, Serotonin, 5HT1A (human recombinant) (Homo sapiens, UniProt P08908); assay: Serotonin, 5HT1A (human recombinant) radioligand binding assay ([3H]-8-OH-DPAT); conditions: human recombinant in HEK-293 cells
T1 construct: expressed in transfected cells; host or cells: HEK-293 cells
T1 sequence (P08908 1-422): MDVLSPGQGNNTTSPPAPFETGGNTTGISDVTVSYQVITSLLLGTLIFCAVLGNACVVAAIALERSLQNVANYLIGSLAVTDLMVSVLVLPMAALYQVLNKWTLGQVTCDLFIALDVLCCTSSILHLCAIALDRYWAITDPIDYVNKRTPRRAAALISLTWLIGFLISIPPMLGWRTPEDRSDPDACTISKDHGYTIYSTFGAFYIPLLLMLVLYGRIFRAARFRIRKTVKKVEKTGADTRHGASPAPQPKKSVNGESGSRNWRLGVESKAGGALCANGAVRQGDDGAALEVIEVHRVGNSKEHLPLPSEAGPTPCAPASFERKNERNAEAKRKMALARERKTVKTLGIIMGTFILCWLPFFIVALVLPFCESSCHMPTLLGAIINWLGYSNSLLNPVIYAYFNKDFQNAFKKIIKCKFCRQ
Protocol: The reactions were carried out in 50 mM TRIS-HCl (pH 7.4) containing 10 mM MgSO4, 0.5 mM EDTA and 0.1% Ascorbic acid at room temperature for 1 hour. The reaction was terminated by rapid vacuum filtration onto glass fiber filters. Radioactivity trapped onto the filters was determined and compared to control values in order to ascertain any interactions of test compounds with the cloned serotonin-5HT1A binding site (Literature Reference: Hoyer, D. et al. Eur. Journal Pharmacol. 1985, 118, 13-23; Schoeffter, P. and Hoyer, D. Naunyn-Schmiedeberg's Arch. Pharmac. 1989, 340, 135-138)
as §1

[2] = molecular target: T2, Dopamine, D2S (human recombinant) (Homo sapiens, UniProt P14416); assay: Dopamine, D2S (human recombinant) radioligand binding assay ([3H]Spiperone); conditions: human recombinant in CHO cells
T2 construct: expressed in transfected cells; host or cells: CHO cells
Protocol: The reactions were carried out in 50 mM TRIS-HCl (pH 7.4) containing 120 mM NaCl, 5 mM KCl, 5 mM MgCl2, 1 mM EDTA for 60 minutes at 25 C. The reaction was terminated by rapid vacuum filtration onto glass fiber filters. Radioactivity trapped onto the filters was determined and compared to control values in order to ascertain any interactions of test compounds with the cloned dopamine-D2 short binding site (Literature Reference: Jarvis, K. R. et al. Journal of Receptor Research 1993, 13(1-4), 573-590; Gundlach, A. L. et al. Life Sciences 1984, 35, 1981-1988.)
as §1

Sequence of Serotonin, 5HT2A (human) (P28223 whole entry): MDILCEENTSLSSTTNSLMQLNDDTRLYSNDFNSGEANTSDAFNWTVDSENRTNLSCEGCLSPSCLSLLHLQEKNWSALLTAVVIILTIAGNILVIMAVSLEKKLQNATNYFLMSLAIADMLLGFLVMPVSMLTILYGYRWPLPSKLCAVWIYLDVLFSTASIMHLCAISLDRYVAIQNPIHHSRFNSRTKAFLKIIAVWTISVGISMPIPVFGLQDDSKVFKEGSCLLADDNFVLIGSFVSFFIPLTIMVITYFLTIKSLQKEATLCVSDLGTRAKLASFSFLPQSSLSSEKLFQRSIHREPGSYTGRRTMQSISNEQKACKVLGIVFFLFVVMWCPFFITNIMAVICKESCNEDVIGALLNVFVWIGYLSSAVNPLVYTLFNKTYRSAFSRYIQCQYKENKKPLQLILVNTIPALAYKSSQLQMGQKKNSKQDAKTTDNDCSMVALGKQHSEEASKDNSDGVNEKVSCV
T2 sequence (P14416 1-414 isoform P14416-2): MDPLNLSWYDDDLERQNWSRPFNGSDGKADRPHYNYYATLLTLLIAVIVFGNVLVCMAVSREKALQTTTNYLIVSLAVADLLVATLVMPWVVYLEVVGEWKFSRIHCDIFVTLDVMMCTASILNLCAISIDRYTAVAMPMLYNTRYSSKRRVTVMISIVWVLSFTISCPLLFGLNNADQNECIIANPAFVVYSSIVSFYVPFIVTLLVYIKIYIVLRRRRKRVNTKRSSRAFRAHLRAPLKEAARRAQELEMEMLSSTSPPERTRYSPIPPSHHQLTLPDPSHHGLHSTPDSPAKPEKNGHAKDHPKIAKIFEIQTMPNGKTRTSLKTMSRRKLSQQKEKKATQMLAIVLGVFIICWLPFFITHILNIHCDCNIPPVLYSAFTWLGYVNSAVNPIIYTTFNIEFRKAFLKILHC

Row | Compound | IC50 (Serotonin, 5HT2A (human)) [nM] | Ki (Serotonin, 5HT2A (human)) [nM] | IC50 [1] [nM] | Ki [1] [nM] | IC50 [2] [nM] | Ki [2] [nM]
1 | O=C1CCc2ccc(COC(=O)CCCN3CCN(c4cccc(Cl)c4Cl)CC3)cc2N1 [Compound 39d, (2-Oxo-1,2,3,4-tetrahydroquinolin-7-yl)methyl 4-(4-(2,3-dichlorophenyl)piperazin-1-yl)butanoate] | 313 | 171 | 85 | 48.5 | 54.7 | 12.8
2 | O=C1CCc2ccc(C(=O)OCCCN3CCN(c4cccc(Cl)c4Cl)CC3)cc2N1 [Compound 24b, 3-(4-(2,3-Dichlorophenyl)piperazin-1-yl)propyl 2-oxo-1,2,3,4-tetrahydroquinoline-7-carboxylate hydrochloride] | 253 | 147 | 28 | 16 | 72.9 | 17
3 | CCOC(=O)CCCOc1ccccc1N1CCN(CCCCOc2ccc3c(c2)NC(=O)CC3)CC1 [Compound 9a, Ethyl 4-(2-(4-(4-(2-oxo-1,2,3,4-tetrahydroquinolin-7-yloxy)butyl)piperazin-1-yl)phenoxy)butanoat hydrochloride] | 456 | 239 | 6.61 | 3.93 | 5.83 | 1.69
